One test has as its target T1, purified human FAS (Homo sapiens, UniProt P49327).
T1 construct: Human FAS was purified from cultured ZR-75-1 human breast cancer cells; endogenous in cells; host or cells: ZR-75-1 human breast cancer cells (ATCC); endogenous enzyme purified by PEG precipitation and Mono Q anion exchange
Nature of the test: Measurement of FAS enzymatic activity (NADPH oxidation), IC50. The class given is biochemical. As to the method:
Human FAS was purified from cultured ZR-75-1 human breast cancer cells obtained from the American Type Culture Collection. The procedure, adapted from Linn et al., 1981, and Kuhajda et al., 1994, utilizes hypotonic lysis, successive polyethyleneglycol (PEG) precipitations, and anion exchange chromatography. […] The lysate is centrifuged in JA-20 rotor (Beckman) at 20,000 rpm for 30 minutes at 4° C. and the supernatant is brought to 42 ml with lysis buffer. A solution of 50% PEG 8000 in lysis buffer is added slowly to the supernatant to a final concentration of 7.5%. After rocking for 60 minutes at 4° C., the solution is centrifuged in JA-20 rotor (Beckman) at 15,000 rpm for 30 minutes at 4° C. […] After the rocking and centrifugation is repeated as above, the pellet is resuspended overnight at 4° C. in 10 ml of Buffer A (20 mM K2HPO4, pH 7.4). After 0.45 μM filtration, the protein solution is applied to a Mono Q 5/5 anion exchange column (Pharmacia). The column is washed for 15 minutes with buffer A at 1 ml/minute, and bound material is eluted with a linear 60-ml gradient over 60 minutes to 1 M KCl. […] FAS protein concentration is determined using the Coomassie Plus Protein Assay Reagent (Pierce) according to manufacturer's specifications using BSA as a standard. This procedure results in substantially pure preparations of FAS (>95%) as judged by Coomassie-stained gels. FAS activity is measured by monitoring the malonyl-CoA dependent oxidation of NADPH spectrophotometrically at OD340 in 96-well plates (Dils et al and […] et al, 1975). […] For each experiment, cerulenin (Sigma) is run as a positive control along with DMSO controls, inhibitors, and blanks (no FAS enzyme) all in duplicate. The assay is performed on a Molecular Devices SpectraMax Plus Spectrophotometer. The plate containing FAS, buffers, inhibitors, and controls are placed in the spectrophotometer heated to 37° C. Using the kinetic protocol, the wells are blanked on duplicate wells containing 100 μl of 100 mM K2HPO4, pH 6.5 and the plate is read at OD340 at 10 sec intervals for 5 minutes to measure any malonyl-CoA independent oxidation of NADPH. The plate is removed from the spectrophotometer and malonyl-CoA (67.4 μM, final concentration per well) and […] (61.8 μM, final concentration per well) are added to each well except to the blanks. The plate is read again as above with the kinetic protocol to measure the malonyl-CoA dependent NADPH oxidation. The difference between the Δ OD340 for the malonyl-CoA dependent and non-malonyl-CoA dependent NADPH oxidation is the specific FAS activity. Because of the purity of the FAS preparation, non-malonyl-CoA dependent NADPH oxidation is negligible. […] Graphs of Δ OD340 versus time are plotted by the SOFTmax PRO software (Molecular Devices) for each compound concentration.

The subject of test [1] is MCF-7 human breast cancer cells. Nature of the test: XTT cytotoxicity assay. Conditions: MCF7, MCF-7, 72 hours, some cells marked (M). The format is cell-based. As to the method:
The XTT assay is a non-radioactive alternative for the [^51 Cr] release cytotoxicity assay. XTT is a tetrazolium salt that is reduced to a formazan dye only by metabolically active, viable cells. The reduction of XTT is measured spectrophotometrically as OD490-OD650.
To measure the cytotoxicity of specific compounds against cancer cells, 9×10^3 MCF-7 human breast cancer cells, obtained from the American Type Culture Collection are plated per well in 96 well plates in DMEM medium with 10% fetal bovine serum, insulin, penicillin, and streptomycin. Following overnight culture at 37° C. and 5% CO2, the compounds to be tested, dissolved in DMSO, are added to the wells in 1 μl volume at the following concentrations: 80, 40, 20, 10, 5, 2.5, 1.25, and 0.625 μg/ml in triplicate. Additional concentrations are tested if required. 1 μl of DMSO is added to triplicate wells are the vehicle control. C75 is run at 40, 20, […], and 5 μg/ml in triplicate as positive controls. After 72 hours of incubation, cells are incubated for 4 hours with the XTT reagent as per manufacturer's instructions (Cell Proliferation Kit II (XTT) Roche). Plates are read at OD490 and OD650 on a Molecular Devices SpectraMax Plus Spectrophotometer. Three wells containing the XTT reagent without cells serve as the plate blank. XTT data are reported as OD490-OD650-Averages and standard error of the mean are computed using SOFTmax Pro software (Molecular Dynamics).
The IC50 for the compounds is defined as the concentration of drug leading to a 50% reduction in OD490-OD650 compared to controls. The OD490-OD650 are computed by the SOFTmax PRO software (Molecular Devices) for each compound concentration. IC50 is calculated by linear regression, plotting the FAS activity as percent of control versus drug concentrations. Linear regression, best-fit line, r^2, and 95% confidence intervals are determined using Prism Version 3.0 (Graph Pad Software).
(In general: Tetrazolium assays rely on reduction of a dye to a coloured formazan, in cell work by metabolically active cells.)

For a further test, the system named is OV. The test is described as follows: XTT cytotoxicity assay, cells marked (OV). The class given is cell-based.

SMILES strings stand for the structures. Converted amounts (≈) assume the structure as drawn. Read-outs that look alike come from different tables or passages of the source.

T1 sequence (P49327 whole entry): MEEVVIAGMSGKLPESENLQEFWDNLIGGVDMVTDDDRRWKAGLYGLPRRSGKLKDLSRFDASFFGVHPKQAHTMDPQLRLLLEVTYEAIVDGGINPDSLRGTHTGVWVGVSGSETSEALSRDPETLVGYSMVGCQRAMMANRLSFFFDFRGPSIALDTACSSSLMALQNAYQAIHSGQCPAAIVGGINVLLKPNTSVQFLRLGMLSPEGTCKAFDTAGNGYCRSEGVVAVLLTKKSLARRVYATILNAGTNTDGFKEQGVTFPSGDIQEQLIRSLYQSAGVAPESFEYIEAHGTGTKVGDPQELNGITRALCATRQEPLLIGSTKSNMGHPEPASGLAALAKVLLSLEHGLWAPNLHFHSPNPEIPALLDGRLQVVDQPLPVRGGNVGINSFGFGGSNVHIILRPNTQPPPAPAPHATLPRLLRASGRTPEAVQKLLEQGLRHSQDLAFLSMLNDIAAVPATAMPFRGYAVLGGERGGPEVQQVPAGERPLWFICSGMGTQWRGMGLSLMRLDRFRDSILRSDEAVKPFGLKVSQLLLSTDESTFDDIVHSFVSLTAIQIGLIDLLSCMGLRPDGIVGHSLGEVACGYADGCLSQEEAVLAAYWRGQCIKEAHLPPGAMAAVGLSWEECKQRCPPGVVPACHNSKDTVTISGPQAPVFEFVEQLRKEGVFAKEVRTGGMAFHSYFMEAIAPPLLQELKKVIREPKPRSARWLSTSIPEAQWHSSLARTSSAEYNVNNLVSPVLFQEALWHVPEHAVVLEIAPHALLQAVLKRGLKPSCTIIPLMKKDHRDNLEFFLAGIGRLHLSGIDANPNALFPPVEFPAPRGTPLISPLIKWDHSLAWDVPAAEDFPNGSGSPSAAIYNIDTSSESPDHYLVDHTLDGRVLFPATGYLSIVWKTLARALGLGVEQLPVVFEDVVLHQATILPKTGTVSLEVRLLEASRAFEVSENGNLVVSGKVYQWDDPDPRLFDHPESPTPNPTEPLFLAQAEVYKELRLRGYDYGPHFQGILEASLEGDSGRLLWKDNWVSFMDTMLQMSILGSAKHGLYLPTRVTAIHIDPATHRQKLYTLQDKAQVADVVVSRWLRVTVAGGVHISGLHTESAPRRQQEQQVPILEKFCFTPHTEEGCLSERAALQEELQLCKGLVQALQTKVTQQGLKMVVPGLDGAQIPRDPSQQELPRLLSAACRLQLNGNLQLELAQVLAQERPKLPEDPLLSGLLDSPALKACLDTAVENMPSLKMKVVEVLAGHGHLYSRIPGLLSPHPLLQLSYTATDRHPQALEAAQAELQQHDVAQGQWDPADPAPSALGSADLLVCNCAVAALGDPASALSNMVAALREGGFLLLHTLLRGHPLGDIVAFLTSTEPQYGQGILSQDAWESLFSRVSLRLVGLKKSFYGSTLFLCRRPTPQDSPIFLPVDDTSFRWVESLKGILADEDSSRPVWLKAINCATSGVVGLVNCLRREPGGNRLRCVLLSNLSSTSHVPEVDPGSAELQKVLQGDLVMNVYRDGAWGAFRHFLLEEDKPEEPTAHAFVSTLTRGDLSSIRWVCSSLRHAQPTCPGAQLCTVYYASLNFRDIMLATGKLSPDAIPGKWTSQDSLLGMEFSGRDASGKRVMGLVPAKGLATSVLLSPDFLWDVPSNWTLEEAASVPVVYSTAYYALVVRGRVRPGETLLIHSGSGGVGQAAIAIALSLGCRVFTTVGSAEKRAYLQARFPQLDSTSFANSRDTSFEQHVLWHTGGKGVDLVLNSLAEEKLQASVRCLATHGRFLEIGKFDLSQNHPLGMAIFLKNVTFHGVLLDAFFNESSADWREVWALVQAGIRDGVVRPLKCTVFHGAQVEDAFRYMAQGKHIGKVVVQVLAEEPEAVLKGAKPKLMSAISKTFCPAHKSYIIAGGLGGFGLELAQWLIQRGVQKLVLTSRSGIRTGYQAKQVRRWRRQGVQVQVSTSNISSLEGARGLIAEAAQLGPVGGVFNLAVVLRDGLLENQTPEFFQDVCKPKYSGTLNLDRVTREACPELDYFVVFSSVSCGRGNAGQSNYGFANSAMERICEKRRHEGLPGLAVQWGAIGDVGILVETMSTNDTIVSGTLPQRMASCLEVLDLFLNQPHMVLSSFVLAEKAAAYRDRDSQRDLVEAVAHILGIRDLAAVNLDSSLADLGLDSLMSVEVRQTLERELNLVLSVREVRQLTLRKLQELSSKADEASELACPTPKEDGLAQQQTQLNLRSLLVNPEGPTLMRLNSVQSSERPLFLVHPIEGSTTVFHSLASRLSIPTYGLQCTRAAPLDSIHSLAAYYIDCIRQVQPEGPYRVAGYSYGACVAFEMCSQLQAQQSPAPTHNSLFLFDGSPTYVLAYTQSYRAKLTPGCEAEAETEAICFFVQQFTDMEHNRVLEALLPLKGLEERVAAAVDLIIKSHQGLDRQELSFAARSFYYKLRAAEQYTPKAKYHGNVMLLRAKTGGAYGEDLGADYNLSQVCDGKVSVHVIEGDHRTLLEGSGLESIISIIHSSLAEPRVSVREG

Broadly, the IC50 is the midpoint of a concentration-inhibition curve. For `C/C=C/C(C)=C/C1(C)SC(=O)C=C1O` (stereo not drawn), the IC50 on purified human FAS is 339 µM; in test [1] it was above 80 µg/mL.
`CC/C=C/C=C/C1(C)SC(=O)C=C1O` (stereo not drawn): the IC50 on purified human FAS was 238 µM; in test [1], above 80 µg/mL.
For `C=C/C(C)=C/C1(C)SC(=O)C=C1O` (stereo not drawn), in that order: 44.8 µM and above 80 µg/mL.
For `CCCC/C=C/C=C/C1(C)SC(=O)C=C1O` (stereo not drawn), in that order: 36.1 µM and 59.4 ± 6.4 µg/mL (≈ 249 µM).
For the molecule `CCCCCCC1(C)SC(=O)C=C1O` (stereo not drawn), on purified human FAS, the “FAS(IC50)” value was “Neg”. In test [1], the IC50 is above 80 µg/mL.
As for `CCCCCCCCC1(C)SC(=O)C=C1O` (stereo not drawn), the IC50 against purified human FAS was 18.6 µM; in test [1] it was 17.6 ± 0.1 µg/mL (≈ 72.6 µM).
`CCCCCCCCC1(C)SC(=O)C(C)=C1O` (stereo not drawn): the IC50 was 192 µM against purified human FAS and 48 ± 1.4 µg/mL (≈ 187 µM) in test [1].
Regarding `CCCCCCC1(C)SC(=O)C=C1OC` (stereo not drawn), on purified human FAS, the “FAS(IC50)” value was “Neg”. Moreover, in test [1], the midpoint of inhibition, the IC50, lay at 9.4 ± 1.5 µg/mL (≈ 41.2 µM).
As to `CCCCCCCCC1(C)SC(=O)C=C1OC` (stereo not drawn), at purified human FAS, the “FAS(IC50)” value is “Neg”. The molecule also yielded an IC50 in test [1] of 16.4 ± 2.3 µg/mL (≈ 64 µM).
The like results for `CCCCCCCCC1(C)SC(=O)C(C)=C1OC` (stereo not drawn) were, in that order, “Neg” and 17.3 ± 5.9 µg/mL (≈ 64 µM).
As for `C=CCC1=C(OC)C(C)(CCCCCCCC)SC1=O` (stereo not drawn), the “FAS(IC50)” value at purified human FAS is recorded as “Neg”. The molecule also registered an IC50 in test [1] of 55 ± 2 µg/mL (≈ 186 µM).
For `CCCCCCCC[C@@]1(C)SC(=O)C=C1OCC(=O)O`, in that order: “Neg” and 50.3 ± 2.8 µg/mL (≈ 167 µM).
Turning to `CCCCCCCCC1(C)SC(=O)C=C1OC(=O)OCC` (stereo not drawn), the IC50 was 9.54 µM on purified human FAS (unit inferred) and 15.1 ± 2.6 µg/mL (≈ 48 µM) in test [1].
Consider `CC1(Cc2ccccc2)SC(=O)C=C1O` (stereo not drawn), for which the “FAS(IC50)” value on purified human FAS is reported as “Neg”. The molecule further returned an IC50 in test [1] above 80 µg/mL.
For `COC1=CC(=O)SC1(C)Cc1ccccc1` (stereo not drawn), in that order: “Neg” and 61.3 ± 3.9 µg/mL (≈ 262 µM).
On to `CCCCCCCCC1(C)SC(=O)C(C(C)O)=C1OC` (stereo not drawn), for which the IC50 is 9.32 µM against purified human FAS and 21 ± 2.9 µg/mL (≈ 69.9 µM) in test [1].
For `CCCCCCCCC1(C)SC(=O)C(C(C)O)=C1O` (stereo not drawn), in that order: 11.5 µM and 23.9 ± 2.9 µg/mL (≈ 83.4 µM).
As for `CCCCCCCCC1(C)SC(=O)C=C1OCC(=O)NNC(=O)c1ccco1` (stereo not drawn), the “FAS(IC50)” value at purified human FAS was “Neg”. In addition, the IC50 in test [1] is 26.4 µg/mL (≈ 64.6 µM); in the test on OV, 21.3 µg/mL (≈ 52.1 µM).
For `CCCCCCCCC1(C)SC(=O)C=C1OCC(=O)NNC(C)=O` (stereo not drawn), in that order: “Neg”, 25.3 µg/mL (≈ 71 µM) and 16 µg/mL (≈ 44.9 µM).
The like results for `CCCCCCCCC1(C)SC(=O)C=C1OCC(=O)NNCc1ccc(Cl)cc1` (stereo not drawn) were, in that order, “Neg”, 6.7 µg/mL (≈ 15.3 µM) and 16 µg/mL (≈ 36.4 µM).
On to `C=CCN(C)C(=O)COC1=CC(=O)SC1(C)CCCCCCCC` (stereo not drawn), for which the “FAS(IC50)” value on purified human FAS is “Neg”. Moreover, it took 9.2 ± 2.2 µg/mL (≈ 26 µM) to reach half-maximal inhibition in test [1] (IC50).
As to `CCCCCCCCC1(C)SC(=O)C=C1OCc1ccccc1` (stereo not drawn), the “FAS(IC50)” value on purified human FAS is listed as “Neg”. Also, the IC50 in test [1] amounted to 29.2 µg/mL (≈ 87.8 µM); in the test on OV, 27.8 µg/mL (≈ 83.6 µM).
As for `C=CCC1(C)C(=O)S[C@](C)(CCCCCCCC)C1=O` (mixture of isomers), at purified human FAS, the “FAS(IC50)” value is “Neg”. Besides, half-maximal inhibition in test [1] (IC50) required 50.4 ± 4.7 µg/mL.
As for `C#CCOC1CC(=O)S[C@]1(C)CCCCCC` (mixture of isomers), at purified human FAS, the “FAS(IC50)” value was “Neg”. Also, in test [1], the IC50 stood at 8.9 ± 2.3 µg/mL.
The like results for `C=CCOC1=CC(=O)S[C@]1(C)CCCCCC` (racemic) were, in that order, “Neg” and 9 ± 1.1 µg/mL (≈ 35.4 µM).
For `C=CCOC1=CC(=O)S[C@]1(C)CCCCCCCC` (racemic), in that order: “Neg” and 14.5 ± 1.5 µg/mL (≈ 51.3 µM).
The like results for `CCCCCC[C@@]1(C)SC(=O)C=C1OCCCCCl` (racemic) were, in that order, “Neg” and 20.8 ± 0.9 µg/mL (≈ 68.2 µM).
Take `CCCCCCCC[C@@]1(C)SC(=O)C=C1OCCCCCl` (racemic): the “FAS(IC50)” value at purified human FAS was “Neg”. Also, in test [1], the IC50 is 35.3 ± 2.2 µg/mL (≈ 106 µM).
On to `CCCCCC[C@@]1(C)SC(=O)C=C1OCC(=O)OCC` (racemic), for which the “FAS(IC50)” value at purified human FAS is on record as “Neg”. In addition, in test [1], the IC50 turned out to be 39.6 ± 2.2 µg/mL (≈ 132 µM).
The like results for `CCCCCCCC[C@@]1(C)SC(=O)C=C1OCC(=O)OCC` (racemic) were, in that order, “Neg” and 35.3 ± 10.4 µg/mL (≈ 107 µM).
The like results for `C=CCNC(=O)COC1=CC(=O)S[C@]1(C)CCCCCCCCCC` (racemic) were, in that order, “Neg” and 12.1 ± 0.6 µg/mL (≈ 32.9 µM).
For `CCCCCC[C@@]1(C)SC(=O)C=C1OCC(=O)NCC(=O)OC` (racemic), in that order: “Neg” and 40.5 ± 5.1 µg/mL (≈ 118 µM).
In the case of `CCCCCC[C@@]1(C)SC(=O)C=C1OCC(=O)NCC(=O)O` (racemic), the “FAS(IC50)” value on purified human FAS is recorded as “Neg”. The molecule also gave a half-maximal inhibitory concentration (IC50) in test [1] above 80 µg/mL.
For `CCCCCC[C@@]1(C)SC(=O)C=C1OCC(=O)NCCCBr` (racemic), in that order: “Neg” and 21.2 ± 1.1 µg/mL (≈ 54 µM).
With `CCCCCCCC[C@@]1(C)SC(=O)C=C1OC(=O)OC` (racemic), the IC50 at purified human FAS is 5.99 µM; in test [1] it was 21.6 ± 0.2 µg/mL (≈ 71.9 µM).
For `C=CCOC(=O)OC1=CC(=O)S[C@]1(C)CCCCCCCC` (racemic), in that order: 16.8 µM and 34.9 ± 10 µg/mL (≈ 107 µM).
`CCCCCCCC[C@@]1(C)SC(=O)C=C1OC(=O)CC` (racemic): the “FAS(IC50)” value at purified human FAS was “Neg”. This molecule returned an IC50 in test [1] of 26.8 ± 0.6 µg/mL (≈ 89.8 µM).
Turning to `CCCCCCCC[C@@]1(C)SC(=O)C(C(C)=O)=C1O` (racemic), on purified human FAS, the “FAS(IC50)” value is listed as “Neg”. This molecule also had an IC50 in test [1] of 125 ± 0.7 µg/mL (≈ 439 µM).
For the molecule `CCCCCCCC[C@@]1(C)SC(=O)C(C(=O)C(F)(F)F)=C1O` (racemic), the IC50 is 121 µM on purified human FAS (unit inferred) and 18.4 ± 2.7 µg/mL (≈ 54.4 µM) in test [1].
As for `CCCCCCCC[C@@]1(C)SC(=O)C=C1OC(=O)NC(C)C` (racemic), the half-maximal inhibitory concentration (IC50) is 246 µM against purified human FAS and 45.7 ± 25.9 µg/mL (≈ 140 µM) in test [1].

The record behind these values is patent US7649012B2, “Compounds, pharmaceutical compositions containing same, and methods of use for same” (FASgen, Inc., priority 2002, dated 2010).
